In article PMC10387993, “New pyrimidine-N-β-D-glucosides: synthesis, biological evaluation, and molecular docking investigations” (Turkish Journal of Chemistry, 2023):
In brackets after ≈: the same amount, converted by molar mass.

How the values were obtained:
Assay type in all cases: cell-based
[1] = LDH cytotoxic activity assay, HT29; conditions: human, HT29 cells; for cytotoxicity at 24 h, 25 μg/mL: HT29, 25 μg/mL; for cytotoxicity at 24 h, 50 μg/mL: HT29, 50 μg/mL; for cytotoxicity at 24 h, 75 μg/mL: HT29, 75 μg/mL; for cytotoxicity at 24 h, 100 μg/mL: HT29, 100 μg/mL
Description: (§1) The cell lines were cultured in a cell medium (Dulbecco’s modified eagle’s or RPMI 1640) enriched with 10% (v/v) fetal bovine serum and 2% (v/v) Penicillin-Streptomycin (10,000 U/mL). First, old medium was removed out of the flask when the cells reached approximately 80% confluence. Next, cells were taken from the flasks surface using trypsin-EDTA solution and then subjected to centrifugation. Following, the cell pellet was suspended with fresh media and was inoculated into wells.
(§2) Approximately 5 × 10^3 cells in 100 μL were placed into 96-well plates as triplicates and treated with 25, 50, 75, and 100 μg/mL concentrations of test compounds at 37 °C with 5% CO2 for 24 h. LDH activity was obtained by determining absorbance at 492–630 nm using a microplate reader.

[2] = LDH cytotoxic activity assay, HeLa; conditions: human, HeLa cells
Description: as §1, §2

normal FL cells = test: cells; conditions: FL normal cells, MTT; for IC50: read-out: IC50; for IC (total growth inhibition): read-out: TGI
Description: as §1
(§3) A cell suspension containing approximately 1 × 10^4 cells in 100 μL was seeded into the wells of 96-well culture plates. […]. The final volume of the wells was set to 200 μL by medium. Cell proliferation assay was evaluated by MTT (yellow tetrazolium MTT (3-(4,5-dimethylthiazolyl-2)-2,5-diphenyltetrazolium bromide) methods. Briefly, an MTT stock solution (5 mg of MTT/mL of distilled water) was filtered and kept at −20 °C until use. The cells were exposed to an MTT reagent (consisting of one parts of MTT stock solutions and nine parts of fresh RPMI 1640 without phenol red) for 4 h to form MTT formazan dye followed by the dye dissolved in DMSO with Sorenson’s buffer for 30 min at room temperature and then the plate was measured at 560 nm, with 690 nm as a reference interval, using a microplate reader. Each experiment was repeated at least three times for each cell line.
(§4) IC50 value is a concentration that inhibits half of the cells in vitro. The half maximal inhibitory concentration (IC50) of the test and control compounds was calculated using XLfit5 or excel spreadsheet and represent in μM at 95% confidence intervals. The proliferation assay results were expressed as the percent inhibition according to the following formula: % Inhibition = [1 - (Absorbance of Treatments /Absorbance of DMSO) × 100]. Three dose response parameters (GI50, TGI, LC50) were calculated according to the following formulas using the absorbance measurements of time zero (Tz), control growth (C), and test growth in the presence of drug (Ti). Growth inhibition of 50% (GI50) was calculated from [(Ti-Tz)/(C-Tz)] × 100 = 50, which is the drug concentration resulting in a 50% reduction in the net growth increase in control cells during the drug incubation. The drug concentration resulting in total growth inhibition (TGI) was calculated from Ti = Tz. The LC50 indicating a net loss of cells following treatment was calculated from [(Ti-Tz)/Tz] × 100 = −50.

in vitro = conditions: human, LC50
Description: as §1, §3, §4

S. aureus ATCC 25923 = test: Microdilution MIC assay; conditions: Staphylococcus aureus, ATCC25923, 24 h, S. aureus ATCC 25923, 24 h at 35 °C; read-out: MIC
Method in brief: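 Broth microdilution in microwells; plates incubated 24 h at 35 °C. MIC taken as the lowest concentration with no visible growth (turbidity), read by eye.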

[3] = LDH cytotoxic activity assay, MCF7; conditions: human, MCF7 cells
Description: as §1, §2

[4] = LDH cytotoxic activity assay, Hep3B; conditions: human, Hep3B cells
Description: as §1, §2

[5] = LDH cytotoxic activity assay, A549; conditions: human, A549 cells
Description: as §1, §2

[6] = LDH cytotoxic activity assay, FL; conditions: human, FL cells (normal cells)
Description: as §1, §2

| Structure (SMILES) | cytotoxicity at 24 h, 25 μg/mL [1] | cytotoxicity at 24 h, 50 μg/mL [1] | cytotoxicity at 24 h, 75 μg/mL [1] | cytotoxicity at 24 h, 100 μg/mL [1] | cytotoxicity at 24 h, 25 μg/mL [2] | cytotoxicity at 24 h, 50 μg/mL [2] | cytotoxicity at 24 h, 75 μg/mL [2] | cytotoxicity at 24 h, 100 μg/mL [2] | GI50 (normal FL cells) | IC50 (normal FL cells) | IC (total growth inhibition) (normal FL cells) | LC50 (concentration causing 50% net cell loss) (in vitro) | MIC (S. aureus ATCC 25923) | further results |
| --- | --- | --- | --- | --- | --- | --- | --- | --- | --- | --- | --- | --- | --- | --- |
| Cc1ccccc1-c1cc(-c2ccccn2)nc(N[C@@H]2O[C@H](CO)[C@@H](O)[C@H](O)[C@H]2O)n1 [Compound 1, N-[4-(2-methylphenyl)-6-pyridin-2-ylpyrimidin-2-yl]-β-D-glucopyranosylamine] | 29.3% | 48% | 68.9% | 83.7% | 30.2% | 47% | 65.3% | 88.7% | 3.1 µg/mL (≈ 7.3 µM) | 77.4 µg/mL (≈ 182 µM) | 81.6 µg/mL | > 500 µg/mL | 500 µg/mL (≈ 1180 µM) |  |
| Cc1ccccc1-c1cc(-c2cccnc2)nc(N[C@@H]2O[C@H](CO)[C@@H](O)[C@H](O)[C@H]2O)n1 [Compound 2, N-[4-(2-methylphenyl)-6-pyridin-3-ylpyrimidin-2-yl]-β-D-glucopyranosylamine] | 27.7% | 44.8% | 72.7% | 94.6% | 30.5% | 47.2% | 49.7% | 72.1% | 3.68 µg/mL (≈ 8.67 µM) | 457 µg/mL (≈ 1080 µM) | > 500 µg/mL | > 500 µg/mL |  |  |
| Cc1ccccc1-c1cc(-c2ccncc2)nc(N[C@@H]2O[C@H](CO)[C@@H](O)[C@H](O)[C@H]2O)n1 [Compound 3, N-[4-(2-methylphenyl)-6-pyridin-4-ylpyrimidin-2-yl]-β-D-glucopyranosylamine] | 33.1% | 49.9% | 71.1% | 98.7% | 16.3% | 33.4% | 40.6% | 56.9% | 6.56 µg/mL (≈ 15.5 µM) | > 500 µg/mL | > 500 µg/mL | > 500 µg/mL | 500 µg/mL (≈ 1180 µM) |  |
| Cc1cccc(-c2cc(-c3cccnc3)nc(N[C@@H]3O[C@H](CO)[C@@H](O)[C@H](O)[C@H]3O)n2)c1 [Compound 5, N-[4-(3-methylphenyl)-6-pyridin-3-ylpyrimidin-2-yl]-β-D-glucopyranosylamine] | 24.6% | 39.4% | 75.9% | 96.8% | 19.8% | 35.3% | 40.3% | 54.3% | 4.16 µg/mL (≈ 9.8 µM) | 25.3 µg/mL (≈ 59.7 µM) | 25.8 µg/mL | > 500 µg/mL |  | cytotoxicity at 24 h, 25 μg/mL ([3]; MCF7, 25 μg/mL): 8.23%; cytotoxicity at 24 h, 50 μg/mL ([3]; MCF7, 50 μg/mL): 12.2%; cytotoxicity at 24 h, 75 μg/mL ([3]; MCF7, 75 μg/mL): 24.9%; cytotoxicity at 24 h, 25 μg/mL ([4]; 25 μg/mL): 14.1%; cytotoxicity at 24 h, 50 μg/mL ([4]; 50 μg/mL): 25.5%; cytotoxicity at 24 h, 75 μg/mL ([4]; 75 μg/mL): 42.8%; cytotoxicity at 24 h, 100 μg/mL ([4]; 100 μg/mL): 52.5%; cytotoxicity at 24 h, 25 μg/mL ([5]; A549, 25 μg/mL): 24.4%; cytotoxicity at 24 h, 50 μg/mL ([5]; A549, 50 μg/mL): 31.3%; cytotoxicity at 24 h, 75 μg/mL ([5]; A549, 75 μg/mL): 51.5%; cytotoxicity at 24 h, 100 μg/mL ([5]; A549, 100 μg/mL): 66.3%; cytotoxicity at 24 h, 25 μg/mL ([6]; FL, 25 μg/mL): 16.6%; cytotoxicity at 24 h, 50 μg/mL ([6]; FL, 50 μg/mL): 32.9%; cytotoxicity at 24 h, 75 μg/mL ([6]; FL, 75 μg/mL): 62.6%; cytotoxicity at 24 h, 100 μg/mL ([6]; FL): 76.8%; cytotoxicity at 24 h, 100 μg/mL ([6]; as the column head prints, head prints FL): 36.4% |
| CC(=O)OC[C@H]1O[C@@H](Nc2nc(-c3ccccn3)cc(-c3ccccc3C)n2)[C@H](OC(C)=O)[C@@H](OC(C)=O)[C@@H]1OC(C)=O [Compound 10, 2,3,4,6-tetra-O-acetyl-N-[4-(2-methylphenyl)-6-pyridin-2-ylpyrimidin-2-yl]-β-D-glucopyranosylamine] | 29.4% | 51.8% | 64.5% | 95.2% | 16.8% | 40.7% | 51.7% | 58.4% | 22.8 µg/mL (≈ 38.4 µM) | > 500 µg/mL | > 500 µg/mL | > 500 µg/mL | > 1000 µg/mL |  |
| CC(=O)OC[C@H]1O[C@@H](Nc2nc(-c3cccnc3)cc(-c3ccccc3C)n2)[C@H](OC(C)=O)[C@@H](OC(C)=O)[C@@H]1OC(C)=O [Compound 11, 2,3,4,6-tetra-O-acetyl-N-[4-(2-methylphenyl)-6-pyridin-3-ylpyrimidin-2-yl]-β-D-glucopyranosylamine] | 36.1% | 49.3% | 63.8% | 90.6% | 17.2% | 29.8% | 45% | 49.8% | 11.2 µg/mL (≈ 18.8 µM) | > 500 µg/mL | > 500 µg/mL | > 500 µg/mL | > 1000 µg/mL |  |
| CC(=O)OC[C@H]1O[C@@H](Nc2nc(-c3ccncc3)cc(-c3ccccc3C)n2)[C@H](OC(C)=O)[C@@H](OC(C)=O)[C@@H]1OC(C)=O [Compound 12, 2,3,4,6-tetra-O-acetyl-N-[4-(2-methylphenyl)-6-pyridin-4-ylpyrimidin-2-yl]-β-D-glucopyranosylamine] | 30.7% | 41.9% | 62.6% | 77.6% | 18.8% | 30.8% | 42.6% | 49.6% | 3.68 µg/mL (≈ 6.21 µM) | > 500 µg/mL | > 500 µg/mL | > 500 µg/mL | > 1000 µg/mL |  |
| CC(=O)OC[C@H]1O[C@@H](Nc2nc(-c3cccc(C)c3)cc(-c3ccccn3)n2)[C@H](OC(C)=O)[C@@H](OC(C)=O)[C@@H]1OC(C)=O [Compound 13, 2,3,4,6-tetra-O-acetyl-N-[4-(3-methylphenyl)-6-pyridin-2-ylpyrimidin-2-yl]-β-D-glucopyranosylamine] | 31.7% | 45.5% | 66.4% | 79.2% | 18.1% | 28% | 42.8% | 50.9% | 1.63 µg/mL (≈ 2.75 µM) | 18.2 µg/mL (≈ 30.7 µM) | 19.1 µg/mL | > 500 µg/mL | 500 µg/mL (≈ 844 µM) |  |
